Structures are written as SMILES. Values joined by “and” are separate entries in the source; they are usually repeats but may differ in a detail not shown here. Equal entries are not always repeated.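 In this assay, cells in 96-well plates receive the compound at five concentrations for 48 hours. Endpoints are linearly interpolated between the surrounding concentrations. The concentration for 50% growth inhibition is given as GI50. TGI: concentration producing complete growth inhibition.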 Bounds are passed on as bounds.

Common to all, as to assay: DTP human tumour cell line panel, 48 h
Test [1] concerns KM12 colon.
Test [2] has as its system MDA-MB-231 breast.
The test system of test [3] is HCT-116 colon.
The test system of test [4] is U251 CNS.
The subject of test [5] is SF-539 CNS.
In test [6] the test system is SF-295 CNS.
Test [7] relates to SN12C renal.
Test [8] relates to HCC-2998 colon.
The test system of test [9] is NCI-H226 lung.
Test [10] deals with HS 578T breast.

For the molecule `SCCSCCCSCCS`, the TGI in test [1], in test [2], in test [3], in test [4], in test [5] and in test [6] was above 100 µM each time. Besides, the TGI in test [7] and in test [8] was above 100 µM throughout.

In the case of `COC(=O)C1[C@H](c2cc(OC)c(OC)c(OC)c2)OC(=O)C1(C(=O)OC)C(=O)c1ccc2c(c1)OCO2` (some centres not stated), the concentration for total growth inhibition (TGI) in test [1], in test [3], in test [4], in [5], in test [9] and in test [6] was above 100 µM in each case. Also, the TGI in [7] and in test [8] was above 100 µM throughout.

As to `CO[C@H](C(=O)[C@@H](O)[C@@H](C)O)[C@@H]1Cc2cc3cc(OC4CC(OC5CC(O)C(O)C(C)O5)C(O)C(C)O4)c(C)c(O)c3c(O)c2C(=O)[C@H]1OC1CC(OC2CC(OC3CC(C)(O)C(O)C(C)O3)C(O)C(C)O2)C(O)C(C)O1` (some centres not stated), the GI50 is 0.0197 µg/mL and 0.0207 µg/mL in test [1]; 0.0194 µg/mL and 0.0116 µg/mL in test [3]; 0.016 µg/mL and 0.0132 µg/mL in test [4]; 0.0233 µg/mL and 0.0157 µg/mL in test [5]; 0.0179 µg/mL and 0.0115 µg/mL in test [9]; 0.0253 µg/mL in [6]. Besides, the GI50 was 0.0272 µg/mL and 0.011 µg/mL in [7]; 0.0395 µg/mL and 0.0243 µg/mL in [8].

For the molecule `CCn1c(-c2cc3ccccc3cc2O)nn(C(=O)c2c(Cl)cccc2Cl)c1=S`, the GI50 in test [10] was 8.76 µM; in test [1], above 50 µM; in test [2], 44.4 µM; in test [3], 28.5 µM; in test [4], 19.5 µM; in test [5] it was above 50 µM. In addition, the figures for the GI50 in test [9], in test [6] and in test [7] were 14.2 µM, 34.6 µM and 23.7 µM, respectively. The TGI in test [10] was 21.5 µM; in test [1], above 50 µM; in test [2], above 50 µM; in test [3], above 50 µM; in [4], above 50 µM; in test [5], above 50 µM. The TGI in test [9] was 40.2 µM; in test [6], above 50 µM; in test [7] it was above 50 µM.

As to `CCOC(=N)/C(=C1\OC(N)=C(c2ccc(Cl)cc2)C1=O)c1ccc(Cl)cc1`, the concentration for total growth inhibition (TGI) is 34.4 µM in test [1]; 30.7 µM in test [3]; 30.8 µM in test [4]; 30.2 µM in test [5]; 49.9 µM in test [9]; 55.8 µM in test [6]. Further, the concentration for total growth inhibition (TGI) in test [7] is 28.6 µM; in [8] it was 32.7 µM.

For `O=c1c(Cl)c(Cl)c(=O)c2sc3cc(Cl)ccc3[nH]c1=2`, the total growth inhibition concentration (TGI) in [10] is above 100 µM; in [1], above 100 µM; in test [2] it was 7.71 µM; in [3] it was above 100 µM; in [4], above 100 µM; in test [5], above 100 µM. Moreover, the total growth inhibition concentration (TGI) in [9] and in test [6] was above 100 µM each time.

With `COc1cc(CNc2ccccc2C(=O)N2CCN(C(=O)c3cc(-c4cc(OC)c(OC)c(OC)c4)n4nc(-c5ccccc5)cc4n3)CC2)cc(OC)c1OC`, the GI50 in [10] was 3.8 µM; in test [1], 2.78 µM; in test [2], 7.02 µM; in test [4], 3.37 µM; in test [5] it was 2.54 µM; in test [9], 4.44 µM. Also, the GI50 in test [7] is 17 µM; in test [8] it was 5.8 µM. The TGI in test [10] was above 100 µM; in test [1] it was above 100 µM; in [2], 67.8 µM; in test [4] it was 70.3 µM; in test [5] it was above 100 µM; in test [9] it was 59.4 µM. Moreover, the total growth inhibition concentration (TGI) in [7] and in [8] was above 100 µM in each case.

In the case of `CC/C(CC(=O)CCC(=O)Nc1ccccc1[N+](=O)[O-])=N/NC(=O)C[n+]1ccccc1`, the TGI in [1], in [3], in test [4], in test [5], in [9] and in test [6] was above 100 µM each time. For the same molecule, the TGI in test [7] and in [8] was above 100 µM in each case.

Consider `Cn1c(=O)c2nc(-c3ccc(Cl)cc3)oc2n(C)c1=O`, for which the TGI in test [1], in test [3], in test [4], in [5], in [9] and in test [6] was above 100 µM each time. The TGI in test [7] and in test [8] was above 100 µM each time.

For `CC1=NN(C(=O)c2ccc([N+](=O)[O-])cc2)C(=O)C1N=Nc1ccccc1C(=O)O` (configuration not stated), the TGI in test [1], in [3], in [4], in test [5], in test [9] and in test [6] was above 100 µM each time. For the same molecule, the TGI in [7] and in [8] was above 100 µM in each case.

With `O=[N+]([O-])C1Cc2ccccc2OC1c1ccccc1` (configuration not stated), the TGI is above 100 µM in test [1]; above 100 µM in [3]; above 100 µM in test [4]; 89.2 µM in [5]; above 100 µM in test [9]; above 100 µM in [6]. Further, the total growth inhibition concentration (TGI) in test [7] was 63 µM; in test [8] it was above 100 µM.

As for `CCc1cc(CCC(=O)Nc2c(C)cccc2C)[nH]n1`, the TGI in test [1], in [3], in [4], in test [5], in test [9] and in test [6] was above 100 µM each time. For the same molecule, the concentration for total growth inhibition (TGI) in test [7] and in test [8] was above 100 µM in each case.

As for `N#CCN/C=C\C(=O)c1ccc(Cl)cc1`, the GI50 in test [10] is 37.1 µM; in test [1], 36.5 µM; in test [2] it was 31.8 µM; in test [3], 29.9 µM; in [4], 70.7 µM; in test [5], 27 µM. Also, the GI50 in [9] was 30 µM; in test [6] it was 28 µM; in test [7], 39.3 µM. Further, the TGI in [10] was above 100 µM; in test [1], above 100 µM; in test [2] it was above 100 µM; in test [3] it was above 100 µM; in test [4] it was above 100 µM; in test [5], 68.3 µM. The TGI in test [9], in test [6] and in test [7] was above 100 µM in each case.

The TGI is the concentration at which net growth stops. Low readings indicate greater sensitivity of the cells, high ones lower sensitivity of the cells. The GI50 is the concentration giving 50% growth inhibition.

For the origin of these results see PubChem BioAssay (NCI).
